Laboratory results from patent US4005146A, “Resolution of dl-allethrolone” (Roussel-UCLAF, priority 1971, dated 1977).

Legend:
house flies = test: Lethal insecticidal activity on house flies, topical application to dorsal thorax; type: in vivo; settings: for % Mortality / DL50: 24 hours after topical treatment, 1 μl acetone solution
Description: The lethal insecticidal activity of d-allethrolone chrysanthemate (compound A) was compared with dl-allethrolone chrysanthemate (compound B) on house flies by topically applying 1 μl of an acetone solution thereof to the dorsal thorax of the insect. 50 insects were used for each dose and the number of dead was determined 24 hours after the treatment.

[1] = test system: female german cockroaches; test: Knock down effect on female german cockroaches by direct spraying; type: in vivo; settings: for % KD after 5 min. / % KD after 10 min. / % KD after 15 min. / % KD after 30 min. / % KD after 60 min.: direct spraying 0.5 ml kerosene/acetone; for KD50 times more active than compound B: compound A vs compound B
Description: The knock down effect of the same two compounds was determined on female german cockroaches by direct spraying as 0.5 ml of a solution in equal volumes of kerosene and acetone. 20 insects were used for each test and the knock down effect was determined at 5,10,15,30 and 60 minutes after treatment.

[2] = vs chrysanthemic acid ester of levo allethrolone; Elliott, J. Sci. Food Agr. 1954; cited from earlier work
[3] = Insecticidal activity of d-allethrolone d-trans chrysanthemate vs the dl-allethrolone ester (general statement); type: in vivo

| SMILES | % Mortality (house flies; 50 mg/l) [%] | % Mortality (house flies; 100 mg/l) [%] | DL50 (house flies) [mg/L] | % KD after 5 min. ([1]; 250 mg/l) [%] | % KD after 10 min. ([1]; 250 mg/l) [%] | % KD after 15 min. ([1]; 250 mg/l) [%] | % KD after 30 min. ([1]; 250 mg/l) [%] | % KD after 60 min. ([1]; 250 mg/l) [%] | % KD after 5 min. ([1]; 500 mg/l) [%] | % KD after 10 min. ([1]; 500 mg/l) [%] | % KD after 15 min. ([1]; 500 mg/l) [%] | % KD after 30 min. ([1]; 500 mg/l) [%] | % KD after 60 min. ([1]; 500 mg/l) [%] | % KD after 5 min. ([1]; 1000 mg/l) [%] | % KD after 10 min. ([1]; 1000 mg/l) [%] | % KD after 15 min. ([1]; 1000 mg/l) [%] | % KD after 30 min. ([1]; 1000 mg/l) [%] | % KD after 60 min. ([1]; 1000 mg/l) [%] | further results |
| --- | --- | --- | --- | --- | --- | --- | --- | --- | --- | --- | --- | --- | --- | --- | --- | --- | --- | --- | --- |
| C=CCC1=C(C)C(OC(=O)C2C(C=C(C)C)C2(C)C)CC1=O (racemic) [B, dl-allethrolone chrysanthemate, reference compound] | 16.2 | 33.7 | 224.3 | 7.5 | 7.5 | 12.5 | 12.5 | 12.5 | 30.9 | 50.0 | 54.7 | 47.6 | 45.2 | 46.1 | 64.1 | 74.3 | 79.4 | 89.7 | % Mortality (house flies; 200 mg/l): 49.0%; % Mortality (house flies; 300 mg/l): 55.1% |
| C=CCC1=C(C)[C@@H](OC(=O)C2C(C=C(C)C)C2(C)C)CC1=O (stereo partly drawn) [A, d-allethrolone chrysanthemate] | 45.6 | 65.3 | 54 | 45.0 | 52.5 | 65.0 | 62.5 | 65.0 | 61.9 | 71.4 | 83.3 | 85.7 | 88.0 | 100 | 100 | 100 | 100 | 100 | times more effective as an insecticide than the ester of levo allethrolone [2]: 4 times; % Mortality (house flies; 25 mg/l): 49.0%; % Mortality (house flies; 75 mg/l): 76.6%; times more active than compound B (lethal activity) (house flies; compound A vs compound B, Table II): 4.15 times; KD50 times more active than compound B ([1]; 5 minutes): about 4.3 times; KD50 times more active than compound B ([1]; 30 minutes): 2.8 times |
| C=CCC1=C(C)[C@@H](OC(=O)[C@@H]2[C@@H](C=C(C)C)C2(C)C)CC1=O [d-allethrolone d-trans chrysanthemate] | – | – | – | – | – | – | – | – | – | – | – | – | – | – | – | – | – | – | insecticidal activity relative to the corresponding dl-allethrolone ester [3]: much superior insecticidal activity |
